Laboratory results published in patent US20220106289A1, “NLRP3 INHIBITORS” (INFLAZOME LIMITED, priority 2018, published 2022).
Where a name gives a salt, the structure may show the parent alone. Read-outs that look alike come from different tables or passages of the source.

What was measured:
[1] = PK in rats, intravenous administration; assay type: in vivo; conditions: male, Sprague-Dawley; for AUC / half-life: rat plasma; for clearance / Vd: plasma, rat; for Vd: read-out: Vdss
Procedure: (§1) Pharmacokinetic parameters were determined in male Sprague Dawley rats (Charles River, UK, 250-300 g; or Vital River Laboratory Animal Technology Co Ltd, Beijing, China, 7-9 weeks old). Animals were individually housed during the study and maintained under a 12 h light/dark cycle. Animals had free access to food and water, except that orally dosed animals were food deprived overnight prior to the study. For intravenous administration, compounds were formulated as a solution in DMSO:PBS [10:90] in 2 mL/kg dosing volume and administered via tail vein. For oral administration, compounds were formulated as a solution in DMSO:water [10:90] in 5 mL/kg dosing volume and administered orally. Serial blood samples (about 200-230 μL) were taken from each animal at each of 8 time-points post dose (0.083, 0.25, 0.5, 1, 2, 4, 8 and 24 h). Samples were held on ice for no longer than 30 minutes before centrifugation (10,000 rpm (8,385 g) for 3 minutes; or 5,696 rpm (3,000 g) for 15 minutes) for plasma generation. Plasma was frozen on dry ice prior to bioanalysis. PK parameters were generated from LC-MS/MS data using Dotmatics or Phoenix WinNonlin 6.3 software.

NLRP3 [2] = molecular target: T1, NLRP3 (Homo sapiens, UniProt Q96P20); experiment: THP-1 cells pyroptosis assay (LPS + nigericin, resazurin read-out); assay type: cell-based; design: Seed THP-1 cells (25,000 cells/well) containing 1.0 μg/ml LPS; host or cells: THP-1 cells; conditions: NLRP3 inhibitory activity, 1 μg/ml LPS, 5 μM nigericin
T1 sequence (Q96P20 whole entry): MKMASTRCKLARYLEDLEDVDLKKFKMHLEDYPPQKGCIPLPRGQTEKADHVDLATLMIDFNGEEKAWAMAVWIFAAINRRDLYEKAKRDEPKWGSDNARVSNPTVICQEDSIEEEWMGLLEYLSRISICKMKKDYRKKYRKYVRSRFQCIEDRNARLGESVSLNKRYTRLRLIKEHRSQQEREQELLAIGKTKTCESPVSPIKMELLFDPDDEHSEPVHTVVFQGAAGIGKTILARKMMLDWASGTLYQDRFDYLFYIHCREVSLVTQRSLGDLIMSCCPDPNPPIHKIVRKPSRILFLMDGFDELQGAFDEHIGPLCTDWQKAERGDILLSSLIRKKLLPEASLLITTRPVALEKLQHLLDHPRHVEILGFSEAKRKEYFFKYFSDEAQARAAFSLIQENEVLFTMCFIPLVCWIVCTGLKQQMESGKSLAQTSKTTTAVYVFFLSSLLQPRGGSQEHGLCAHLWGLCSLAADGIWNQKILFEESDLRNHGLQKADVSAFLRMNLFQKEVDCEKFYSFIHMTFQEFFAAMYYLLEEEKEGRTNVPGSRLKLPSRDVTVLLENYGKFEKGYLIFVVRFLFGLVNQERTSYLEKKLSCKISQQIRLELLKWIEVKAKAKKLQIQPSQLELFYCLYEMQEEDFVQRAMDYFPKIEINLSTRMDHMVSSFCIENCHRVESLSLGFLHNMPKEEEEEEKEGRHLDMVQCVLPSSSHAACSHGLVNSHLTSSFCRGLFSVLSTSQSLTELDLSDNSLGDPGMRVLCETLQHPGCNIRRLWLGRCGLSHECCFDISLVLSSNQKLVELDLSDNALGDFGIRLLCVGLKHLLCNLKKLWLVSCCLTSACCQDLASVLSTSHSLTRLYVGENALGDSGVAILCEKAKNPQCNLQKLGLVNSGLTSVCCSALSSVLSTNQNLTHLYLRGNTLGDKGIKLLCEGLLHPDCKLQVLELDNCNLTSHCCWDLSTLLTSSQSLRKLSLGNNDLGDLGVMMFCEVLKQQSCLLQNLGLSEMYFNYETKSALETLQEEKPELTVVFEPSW
In short: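 THP-1 cells in serum-free RPMI were primed with 1 μg/ml LPS and incubated 3 h at 37° C with compound, then given 5 μM nigericin for 1 h. After supernatant removal, viability was read by 100 μM resazurin over 1-2 h at 37° C.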

NLRP3 [3] = molecular target: T1, NLRP3; experiment: Human whole blood IL-1β release assay (LPS + nigericin, AlphaLisa); assay type: cell-based; design: Human whole blood in Li-heparin tubes was obtained from healthy donors; from tissue; host or cells: human whole blood from healthy donors; conditions: NLRP3 inhibitory activity, 1 μg/ml LPS, 10 μM nigericin, read-out: HWB IC50
Procedure: For systemic delivery, the ability to inhibit NLRP3 when the compounds are present within the bloodstream is of great importance. For this reason, the NLRP3 inhibitory activity of a number of compounds in human whole blood was investigated in accordance with the following protocol. Human whole blood in Li-heparin tubes was obtained from healthy donors from a volunteer donor panel. • 1. […] Incubate for 3 hrs at 37° C., 5% CO2 • 4. Add 10 μl nigericin (Sigma #N7143) (10 μM FAC) to all wells • 5. Incubate for 1 hr at 37° C., 5% CO2 • 6. At the end of the incubation period, spin plates at 300×g for 5 mins to pellet cells and remove 20 μl of supernatant and add to 96-well v-bottom plates for IL-1β analysis (note: these plates containing the supernatants can be stored at -80° C. to be analysed at a later date) • 7. IL-1β was measured according to the manufacturer protocol (Perkin Elmer-AlphaLisa IL-1 Kit A[…]-5000) • 8.

[4] = PK in rats, oral administration; assay type: in vivo; conditions: male, Sprague-Dawley; for AUC / Cmax / Tmax / half-life: rat plasma; for CL/F / bioavailability: plasma, rat
Procedure: as §1

## COC1(c2cc(S(=O)(=O)NC(=O)Nc3c4c(cc5c3CCC5)CCC4)nn2C)CCC1 [Example 51, N-((1,2,3,5,6,7-Hexahydro-s-indacen-4-yl)carbamoyl)-5-(1-methoxycyclobutyl)-1-methyl-1H-pyrazole-3-sulfonamide]
[1]; 1 mg/kg
  AUC: 4870 ng·h/mL
  half-life: 1 h
  clearance: 3.4 mL/min/kg
  Vd: 0.29 L/kg
NLRP3 [2]
  IC50: < 0.25 µM
NLRP3 [3]
  IC50: 0.25 to 0.5 µM

## [2H]C([2H])([2H])C([2H])(n1ccc(S(=O)(=O)NC(=O)Nc2c3c(cc4c2CCC4)CCC3)n1)C([2H])([2H])[2H] [Example 20, N-((1,2,3,5,6,7-Hexahydro-s-indacen-4-yl)carbamoyl)-1-(propan-2-yl-d7)-1H-pyrazole-3-sulfonamide, potassium salt]
[1]; 1 mg/kg
  AUC: 21600 ng·h/mL
  half-life: 4.7 h
  clearance: 0.8 mL/min/kg
  Vd: 0.25 L/kg

## CCn1ccc(S(=O)(=O)NC(=O)Nc2c3c(cc4c2CCC4)CCC3)n1 [Example 45, 1-Ethyl-N-((1,2,3,5,6,7-hexahydro-s-indacen-4-yl)carbamoyl)-1H-pyrazole-3-sulfonamide, sodium salt]
[4]; 3 mg/kg
  AUC: 61600 ng·h/mL
  Cmax: 7900 ng/mL
  Tmax: 2 h
  half-life: 2.5 h
  CL/F: 0.8 mL/min/kg
NLRP3 [2]
  IC50: < 0.25 µM
NLRP3 [3]
  IC50: 1 to 5 µM

## CC(C)n1cnc(S(=O)(=O)NC(=O)Nc2c3c(cc4c2CCC4)CCC3)n1 [Example 46, N-((1,2,3,5,6,7-Hexahydro-s-indacen-4-yl)carbamoyl)-1-isopropyl-1H-1,2,4-triazole-3-sulfonamide, sodium salt]
[1]; 1 mg/kg
  AUC: 10000 ng·h/mL
  half-life: 4 h
  clearance: 1.7 mL/min/kg
  Vd: 0.45 L/kg
NLRP3 [2]
  IC50: 0.25 to 0.5 µM
NLRP3 [3]
  IC50: 0.5 to 1 µM

## COC(C)(C)c1cc(S(=O)(=O)NC(=O)Nc2c(C(C)C)cc(Cl)cc2C(C)C)nn1C [Example 83, N-((4-Chloro-2,6-diisopropylphenyl)carbamoyl)-5-(2-methoxypropan-2-yl)-1-methyl-1H-pyrazole-3-sulfonamide]
[4]; 1.3 mg/kg
  AUC: 2750 ng·h/mL
  Cmax: 468 ng/mL
  Tmax: 3.17 h
  half-life: 3.7 h
  CL/F: 8.5 mL/min/kg
  bioavailability: > 100%
[1]; 1 mg/kg
  AUC: 1130 ng·h/mL
  half-life: 3.9 h
  clearance: 14.8 mL/min/kg
  Vd: 2.23 L/kg
NLRP3 [2]
  IC50: < 0.25 µM
NLRP3 [3]
  IC50: 1 to 5 µM

## COC(C)(C)c1cc(S(=O)(=O)NC(=O)Nc2c3c(cc4c2CCC4)CCC3)nn1C [Example 39, N-((1,2,3,5,6,7-Hexahydro-s-indacen-4-yl)carbamoyl)-5-(2-methoxypropan-2-yl)-1-methyl-1H-pyrazole-3-sulfonamide]
[4]; 3 mg/kg
  AUC: 3920 ng·h/mL
  Cmax: 1370 ng/mL
  Tmax: 0.83 h
  half-life: 2.2 h
  CL/F: 13 mL/min/kg
  bioavailability: > 100%
[1]; 3 mg/kg
  AUC: 3840 ng·h/mL
  half-life: 4 h
  clearance: 13.1 mL/min/kg
  Vd: 0.9 L/kg
NLRP3 [2]
  IC50: < 0.25 µM
NLRP3 [3]
  IC50: 0.5 to 1 µM

## CC(C)c1cc(Cl)c2c(c1NC(=O)NS(=O)(=O)c1ccn(C(C)C)n1)CCC2 [Example 34, N-((7-Chloro-5-isopropyl-2,3-dihydro-1H-inden-4-yl)carbamoyl)-1-isopropyl-1H-pyrazole-3-sulfonamide]
NLRP3 [2]
  IC50: 0.25 to 0.5 µM
NLRP3 [3]
  IC50: 5 to 10 µM

## [2H]C([2H])([2H])N(CCn1ccc(S(=O)(=O)NC(=O)Nc2c3c(cc4c2CCC4)CCC3)n1)C([2H])([2H])[2H] [Example 12, 1-(2-(Bis(methyl-d3)amino)ethyl)-N-((1,2,3,5,6,7-hexahydro-s-indacen-4-yl)carbamoyl)-1H-pyrazole-3-sulfonamide, potassium salt]
NLRP3 [2]
  IC50: < 0.25 µM
NLRP3 [3]
  IC50: 0.5 to 1 µM

## CC(C)n1ccc(S(=O)(=O)NC(=O)Nc2c3c(c(Cl)c4c2CCC4)CCC3)n1 [Example 35, N-((8-Chloro-1,2,3,5,6,7-hexahydro-s-indacen-4-yl)carbamoyl)-1-isopropyl-1H-pyrazole-3-sulfonamide]
NLRP3 [2]
  IC50: < 0.25 µM
NLRP3 [3]
  IC50: 5 to 10 µM

## CN(C)Cc1ccc(S(=O)(=O)NC(=O)Nc2c3c(cc4c2CCC4)CCC3)cc1 [Example 66, 4-((Dimethylamino)methyl)-N-((1,2,3,5,6,7-hexahydro-s-indacen-4-yl)carbamoyl)benzenesulfonamide, sodium salt]
NLRP3 [2]
  IC50: < 0.25 µM
NLRP3 [3]
  IC50: 0.25 to 0.5 µM

## CC(C)c1cc(F)cc2c1C(C(=O)NS(=O)(=O)c1ccn(C3CC3)n1)CCC2(C)C (centres unmarked) [Example 6, N-((1-Cyclopropyl-1H-pyrazol-3-yl)sulfonyl)-6-fluoro-8-isopropyl-4,4-dimethyl-1,2,3,4-tetrahydronaphthalene-1-carboxamide]
NLRP3 [2]
  IC50: 1 to 5 µM
NLRP3 [3]
  IC50: 5 to 10 µM

## O=C(Nc1c2c(cc3c1CCO3)CCC2)NS(=O)(=O)c1ccn(C2CC2)n1 [Example 67, 1-Cyclopropyl-N-((3,5,6,7-tetrahydro-2H-indeno[5,6-b]furan-4-yl)carbamoyl)-1H-pyrazole-3-sulfonamide]
NLRP3 [2]
  IC50: < 0.25 µM
NLRP3 [3]
  IC50: 1 to 5 µM

## O=C(Nc1c2c(cc3c1CCC3)CCC2)NS(=O)(=O)c1ccn(CC(F)F)n1 [Example 63, 1-(2,2-Difluoroethyl)-N-((1,2,3,5,6,7-hexahydro-s-indacen-4-yl)carbamoyl)-1H-pyrazole-3-sulfonamide, sodium salt]
NLRP3 [2]
  IC50: < 0.25 µM
NLRP3 [3]
  IC50: 1 to 5 µM

## O=C(Nc1c2c(cc3c1CCC3)CCC2)NS(=O)(=O)c1cnn(CC(F)(F)F)c1 [Example 41, N-((1,2,3,5,6,7-Hexahydro-s-indacen-4-yl)carbamoyl)-1-(2,2,2-trifluoroethyl)-1H-pyrazole-4-sulfonamide, sodium salt]
NLRP3 [2]
  IC50: 0.25 to 0.5 µM
NLRP3 [3]
  IC50: 5 to 10 µM

## CC(C)n1ccc(S(=O)(=O)NC(=O)Nc2cc(Br)ccc2Sc2nnnn2C)n1 [Example 28, N-((5-Bromo-2-((1-methyl-1H-tetrazol-5-yl)thio)phenyl)carbamoyl)-1-isopropyl-1H-pyrazole-3-sulfonamide]
NLRP3 [2]
  IC50: 1 to 5 µM
NLRP3 [3]
  IC50: 5 to 10 µM
